In US7763615B2, “Ecteinascidin analogs for use as antitumour agents” (priority 2001, dated 2010):
In brackets after ≈: the same amount, converted by molar mass. Like-named read-outs stand apart in the source and are kept apart here.

Legend:
[1] = system: NRK-52E, normal rat kidney cells; conditions: 24 h
Protocol: In order to assess the cytotoxicity of the drugs to normal cells, we used 96 well plates plated at a density of 5000 cells per well (except for the FDC-P1 which were plated at 12,000 cells per well) with normal cell lines (ATCC, Table 1) maintained as per the directions of the ATCC: AML-12, normal mouse liver cells; NRK-52E, normal rat kidney cells; L8, normal rat skeletal muscle cells; FDC-P1, normal mouse myelogeous stem cells; and H9c2 (2-1), normal rat cardiac muscle cells. The cells in each plate were permitted to settle overnight before adding the test drug.
To each well (100 μl medium) 10 μl of drug in media was added at varying concentrations (1×10-10-0.01 mg/ml final concentration) and further incubated overnight at 37° C. with 5% CO2. After 24 h the following assays were performed. All experiments were repeated at least 3 times and were assayed in duplicate.
MTS assay (CellTiter 96 aqueous) was performed according to the manufacturer's (Promega) directions (for all cell types). Cell viability (mitochondrial activity) is determined via enzymatic conversion of the formazan substrate.

[2] = system: H9c2 (2-1), normal rat cardiac muscle cells; conditions: 24 h
physchem [3] = conditions: pH 7.4, aqueous buffer, Solubility Dulbecco's PBS pH 7.4
[4] = s9, 60 min, 1 μM
Protocol: The metabolic stability was determined used human liver S9 homogenate that including both microsomal and cytosolic enzyme activities. The test compound was diluted in methanol (0.625%) and acetonitrile (0.625%) at the concentration 1 μM and incubated in the human liver pool (protein=1 mg/mL) during 60 min at 37° C. Peak areas corresponding to all analytes (metabolic products) were determined by HPLC-MS/MS. Areas were recorded and ratios of peak areas of analytes to that of internal standard for each analyte were determined. The ratio of precursor compound remaining after 60 minutes and the amount remaining at time zero, expressed as percent, are reported as metabolic stability. Higher values mean higher metabolic stability.

physchem [5] = conditions: pH 7.4, log D n-Octanol-Dulbecco's PBS pH 7.4
[6] = system: L8, normal rat skeletal muscle cells; conditions: 24 h
[7] = system: AML-12, normal mouse liver cells; conditions: 24 h
CYP3A4 = CYP3A4 (Homo sapiens, UniProt P08684); assay: in vitro; conditions: CYP3A4 (% inhibition)
CYP3A4, sequence (P08684 whole entry): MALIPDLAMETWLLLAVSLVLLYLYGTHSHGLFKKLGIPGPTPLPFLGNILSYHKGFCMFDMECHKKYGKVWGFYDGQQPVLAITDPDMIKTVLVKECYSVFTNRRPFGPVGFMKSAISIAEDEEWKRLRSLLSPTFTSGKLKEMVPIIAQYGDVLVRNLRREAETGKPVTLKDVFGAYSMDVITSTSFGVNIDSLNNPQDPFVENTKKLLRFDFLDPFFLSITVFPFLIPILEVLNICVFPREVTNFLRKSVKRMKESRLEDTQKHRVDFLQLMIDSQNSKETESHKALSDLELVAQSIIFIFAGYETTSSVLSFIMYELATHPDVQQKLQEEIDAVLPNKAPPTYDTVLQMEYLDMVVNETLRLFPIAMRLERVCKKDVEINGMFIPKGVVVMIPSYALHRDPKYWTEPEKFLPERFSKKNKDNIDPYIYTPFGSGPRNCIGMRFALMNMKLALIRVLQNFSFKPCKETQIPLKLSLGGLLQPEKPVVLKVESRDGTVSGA

in vitro = conditions: human, Caco-2
Description: The intestinal epithelium permeability is a critical characteristic that determines the rate and extent of human absorption and ultimately the bioavailability of a drug candidate. Caco-2 permeability assay allows a rapid assessment of membrane permeability and thus helps to rank-order compounds in terms of their absorption potential.
The Caco-2 cell line is a human colon adenocarcinoma cell line that differentiates in culture and resembles the epithelial lining of the human small intestine.
The apparent permeability coefficients (Papp) was determined in the apical-to-basolateral (A-to-B) direction across the cell monolayers (TC-7 sub-clone of the Caco-2) cultured on polycarbonate membrane filters. Compounds were tested at 50 μM with at a final DMSO concentration of 1%. Samples were analyzed by HPLC-MS or HPLC-MS/MS.
The test compound was added to the apical side and the Papp was determined based on the rate of appearance of the test compound in the basolateral side after 2 h-incubation. Two reference compounds, propranolol (highly permeable) and ranitidine (poorly permeable), are tested in each assay as controls.

CYP2D6 = CYP2D6 (Homo sapiens, UniProt P10635); assay: in vitro; conditions: CYP2D6 (% inhibition)
CYP2D6, sequence (P10635 whole entry): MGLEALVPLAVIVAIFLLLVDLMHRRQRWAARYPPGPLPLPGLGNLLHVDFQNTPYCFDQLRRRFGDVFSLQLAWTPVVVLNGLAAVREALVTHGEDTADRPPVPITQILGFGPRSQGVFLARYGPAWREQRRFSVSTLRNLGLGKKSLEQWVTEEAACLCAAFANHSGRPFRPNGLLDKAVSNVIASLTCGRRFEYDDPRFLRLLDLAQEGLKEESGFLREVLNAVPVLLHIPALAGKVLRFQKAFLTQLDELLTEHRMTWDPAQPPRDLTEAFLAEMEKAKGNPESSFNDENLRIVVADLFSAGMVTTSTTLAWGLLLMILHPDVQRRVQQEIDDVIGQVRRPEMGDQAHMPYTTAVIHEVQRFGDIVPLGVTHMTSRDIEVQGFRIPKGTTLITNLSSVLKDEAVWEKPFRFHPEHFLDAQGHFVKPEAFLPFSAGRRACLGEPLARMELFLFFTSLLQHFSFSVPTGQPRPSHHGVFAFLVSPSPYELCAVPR

[8] = system: FDC-P1, normal mouse myelogeous stem cells; conditions: 24 h
MEL-28 = assay: cells; format: cell-based; conditions: Homo sapiens, SK-MEL-28, 48 h; for GI50 / IC (TGI): MEL-28, 48 hours exposure, SRB; for CC50: read-out: LC50, MEL-28, 48 hours exposure, SRB
Summary of the method: (§1)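 Cells plated at 5×10^3 per well; 18 h later, test samples added across 10 to 10^−8 μg/ml; incubation continued 48 h at 37° C, 5% CO2. Cells then fixed with cold TCA, stained with SRB, dye solubilised in Tris, and optical density measured at 490 nm.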

HT29 = assay: cells; format: cell-based; conditions: Homo sapiens, HT-29, 48 h; for GI50 / IC (TGI): HT29, 48 hours exposure, SRB; for CC50: read-out: LC50, HT29, 48 hours exposure, SRB
Summary of the method: as §1

MB231 = assay: cells; format: cell-based; conditions: Homo sapiens; for CC50: read-out: LC50; for IC (TGI): read-out: TGI
Summary of the method: as §1

SW-620 = assay: cells; format: cell-based; conditions: Homo sapiens; for CC50: SW-620, 48 h, read-out: LC50; for IC (TGI) / GI50: SW-620, 48 hours exposure, SRB; for GI50: read-out: GI50
Summary of the method: as §1

MCF = assay: cells; format: cell-based; conditions: Homo sapiens; for CC50: read-out: LC50; for IC (TGI): read-out: TGI
Summary of the method: as §1

A498 = assay: cells; format: cell-based; conditions: Homo sapiens; for CC50: A498, 48 h, read-out: LC50; for GI50 / IC (TGI): A498, 48 hours exposure, SRB
Summary of the method: as §1

DU145 = assay: cells; format: cell-based; conditions: Homo sapiens, DU-145, 48 h; for GI50 / IC (TGI): DU145, 48 hours exposure, SRB; for CC50: read-out: LC50, DU145, 48 hours exposure, SRB
Summary of the method: as §1

A549 = assay: cells; format: cell-based; conditions: Homo sapiens, A549, 48 h; for IC (TGI): read-out: TGI; for CC50: read-out: LC50, A549, 48 hours exposure, SRB
Summary of the method: as §1

(HEPG2) = conditions: human, 24 h, 30 μM
Protocol: The toxic potential of compounds was investigated in vitro using primary human hepatocytes (HEPG2). The compounds were tested at 30 μM in duplicate with a final DMSO concentration of 1%. After incubation during 24 h at 37° C. the cell viability was determined by the conversion of oxided alarmarBlue (resazurin) to reduced alarmarBlue (resorufin). Chlorpromazine was used as reference compound. Results are expressed as a percent of inhibition of control values.

[9] = A549, 48 hours exposure, SRB, read-out: GI50

COc1ccc2[nH]c3c(c2c1)CCN[C@]31CS[C@@H]2c3c(OC(C)=O)c(C)c4c(c3[C@H](COCC1=O)N1C2[C@H]2c3c(cc(C)c(OC)c3O)C[C@@H]([C@@H]1O)N2C)OCO4 (some centres unmarked) [Compound 27]
Kidney [1]: 1.01E−08 | Heart [2]: 9.93E−08 | solubility (physchem [3]): 2.99 µM (≈ 2.39 µg/mL) | Human Liver S9 Metabolic Stability (% remaining) [4]: 7 % remaining | logD at 60 min (physchem [5]): > 5 | Skeletal [6]: 1.54E−08 | Liver [7]: 1.48E−08 | inhibition at 30 min, 10 µM (CYP3A4): 53% | Papp A→B at 2 h, 50 μM (in vitro): < 11.8 nm/s | inhibition at 450 min, 10 µM (CYP2D6): 13% | Myelo [8]: 1.75E−08 | GI50 (MEL-28): 0.255 nM | IC (TGI) (MEL-28): 0.637 nM | CC50 (MEL-28): 1.27 nM | GI50 (HT29): 0.255 nM | IC (TGI) (HT29): 0.764 nM | CC50 (HT29): 1.15 nM | CC50 (MB231; 48 h): 12.7 nM | GI50 (MB231; MB231, 48 hours exposure, SRB): 0.255 nM | IC (TGI) (MB231; MB231, 48 hours exposure, SRB): 6.37 nM | CC50 (SW-620): 1.15 nM | IC (TGI) (SW-620): 0.637 nM | GI50 (SW-620): 0.255 nM | CC50 (MCF; 48 h): 11.5 nM | IC (TGI) (MCF; 48 h): 1.27 nM | GI50 (MCF; MCF, 48 hours exposure, SRB): 0.255 nM | CC50 (A498): 1.27 nM | GI50 (A498): 0.255 nM | IC (TGI) (A498): 0.51 nM | GI50 (DU145): 0.0255 nM | IC (TGI) (DU145): 0.0892 nM | CC50 (DU145): 3.82 nM | GI50 (A549; [9]): 0.255 nM | IC (TGI) (A549; A549, 48 hours exposure, SRB): 0.892 nM | CC50 (A549): 6.37 nM

COc1c(C)cc2c(c1O)[C@@H]1C3[C@@H]4SC[C@]5(NCCc6c5[nH]c5ccc(O)cc65)C(=O)COC[C@@H](c5c6c(c(C)c(OC(C)=O)c54)OCO6)N3[C@@H](O)[C@H](C2)N1C (some centres unmarked) [Compound 31]
Kidney [1]: 4.27E−08 | Heart [2]: 6.65E−08 | solubility (physchem [3]): 18.3 µM (≈ 14.3 µg/mL) | Human Liver S9 Metabolic Stability (% remaining) [4]: 17 % remaining | logD at 60 min (physchem [5]): 3.61 | Cell Viability (% inhibition) ((HEPG2)): 22 % inhibition | Skeletal [6]: 1.35E−08 | Liver [7]: 1.89E−08 | inhibition at 30 min, 10 µM (CYP3A4): 84% | Papp A→B at 2 h, 50 μM (in vitro): < 3.2 nm/s | Myelo [8]: 3.18E−08 | GI50 (MEL-28): 2.59 nM | IC (TGI) (MEL-28): 3.89 nM | CC50 (MEL-28): 10.4 nM | GI50 (HT29): 3.89 nM | IC (TGI) (HT29): 7.78 nM | CC50 (HT29): 13 nM | CC50 (MB231; 48 h): 13 nM | GI50 (MB231; MB231, 48 hours exposure, SRB): 1.3 nM | IC (TGI) (MB231; MB231, 48 hours exposure, SRB): 5.19 nM | CC50 (SW-620): 11.7 nM | IC (TGI) (SW-620): 3.89 nM | GI50 (SW-620): 2.59 nM | CC50 (MCF; 48 h): 11.7 nM | GI50 (MCF; MCF, 48 hours exposure, SRB): 2.59 nM | IC (TGI) (MCF; MCF, 48 hours exposure, SRB): 5.19 nM | CC50 (A498): 13 nM | GI50 (A498): 2.59 nM | IC (TGI) (A498): 6.49 nM | GI50 (DU145): 1.3 nM | IC (TGI) (DU145): 3.89 nM | CC50 (DU145): 9.08 nM | GI50 (A549; [9]): 2.59 nM | IC (TGI) (A549; A549, 48 hours exposure, SRB): 5.19 nM | CC50 (A549): 38.9 nM

COc1c(C)cc2c(c1O)[C@@H]1C3[C@@H]4SC[C@]5(NCCc6c5[nH]c5cc(F)ccc65)C(=O)COC[C@@H](c5c6c(c(C)c(OC(C)=O)c54)OCO6)N3[C@@H](O)[C@H](C2)N1C (some centres unmarked) [Compound 32]
Kidney [1]: 1.45E−07 | Heart [2]: 2.42E−07 | solubility (physchem [3]): 14.3 µM (≈ 11.2 µg/mL) | Human Liver S9 Metabolic Stability (% remaining) [4]: 9 % remaining | logD at 60 min (physchem [5]): > 4.3 | Cell Viability (% inhibition) ((HEPG2)): 39 % inhibition | Skeletal [6]: 1.51E−08 | Liver [7]: 6.00E−07 | inhibition at 30 min, 10 µM (CYP3A4): 83% | inhibition at 450 min, 10 µM (CYP2D6): 12% | Myelo [8]: 5.25E−07 | GI50 (MEL-28): 2.59 nM | IC (TGI) (MEL-28): 10.3 nM | CC50 (MEL-28): 25.9 nM | GI50 (HT29): 7.76 nM | IC (TGI) (HT29): 25.9 nM | CC50 (HT29): 103 nM | CC50 (MB231; 48 h): 90.6 nM | GI50 (MB231; MB231, 48 hours exposure, SRB): 2.59 nM | IC (TGI) (MB231; MB231, 48 hours exposure, SRB): 9.06 nM | CC50 (SW-620): 129 nM | IC (TGI) (SW-620): 25.9 nM | GI50 (SW-620): 5.17 nM | CC50 (MCF; 48 h): 129 nM | GI50 (MCF; MCF, 48 hours exposure, SRB): 9.06 nM | IC (TGI) (MCF; MCF, 48 hours exposure, SRB): 25.9 nM | CC50 (A498): 51.7 nM | GI50 (A498): 2.59 nM | IC (TGI) (A498): 9.06 nM | GI50 (DU145): 1.29 nM | IC (TGI) (DU145): 2.59 nM | CC50 (DU145): 3.88 nM | GI50 (A549): 3.88 nM | IC (TGI) (A549; A549, 48 hours exposure, SRB): 25.9 nM | CC50 (A549): 90.6 nM

COc1c(C)cc2c(c1O)[C@@H]1C3[C@@H]4SC[C@]5(C(=O)COC[C@@H](c6c7c(c(C)c(OC(C)=O)c64)OCO7)N3[C@@H](O)[C@H](C2)N1C)c1[nH]c2ccc(O)cc2c1CCN5C (some centres unmarked) [Compound 33]
Kidney [1]: 7.78E−09 | Heart [2]: 1.27E−06 | solubility (physchem [3]): 68.9 µM (≈ 55.1 µg/mL) | Human Liver S9 Metabolic Stability (% remaining) [4]: 10 % remaining | logD at 60 min (physchem [5]): 3.5 | Cell Viability (% inhibition) ((HEPG2)): 32 % inhibition | Skeletal [6]: 1.41E−08 | Liver [7]: 1.05E−08 | inhibition at 30 min, 10 µM (CYP3A4): 84% | Papp A→B at 2 h, 50 μM (in vitro): 77.7 nm/s | inhibition at 450 min, 10 µM (CYP2D6): 28% | Myelo [8]: 1.92E−08 | GI50 (MEL-28): 0.255 nM | IC (TGI) (MEL-28): 0.637 nM | CC50 (MEL-28): 1.15 nM | GI50 (HT29): 0.255 nM | IC (TGI) (HT29): 0.764 nM | CC50 (HT29): 1.15 nM | CC50 (MB231; 48 h): 12.7 nM | IC (TGI) (MB231; 48 h): 1.27 nM | GI50 (MB231; MB231, 48 hours exposure, SRB): 0.255 nM | CC50 (SW-620): 10.2 nM | IC (TGI) (SW-620): 1.15 nM | GI50 (SW-620): 0.255 nM | CC50 (MCF; 48 h): 11.5 nM | GI50 (MCF; MCF, 48 hours exposure, SRB): 1.02 nM | IC (TGI) (MCF; MCF, 48 hours exposure, SRB): 2.55 nM | CC50 (A498): 1.27 nM | GI50 (A498): 0.255 nM | IC (TGI) (A498): 0.51 nM | GI50 (DU145): 0.382 nM | IC (TGI) (DU145): 0.892 nM | CC50 (DU145): 3.82 nM | GI50 (A549; [9]): 0.382 nM | CC50 (A549): 5.1 nM | IC (TGI) (A549): 1.27 nM

CC(C)NCC(O)COc1cccc2ccccc12 (centres unmarked) [propranolol, reference compound]
Papp A→B at 2 h, 50 μM (in vitro): > 200 nm/s

CNC(=C[N+](=O)[O-])NCCSCc1ccc(CN(C)C)o1 [ranitidine, reference compound]
Papp A→B at 2 h, 50 μM (in vitro): < 50 nm/s
